# Patent publication US9474790B2, “Stable, protracted GLP-1/glucagon receptor co-agonists for medical use” (Novo Nordisk A/S, priority 2013, dated 2016)
# Numbered stars: 1 amine (or outer) side, 2 acyl side, 3 side chain; on linkers, the order of the positions; unused ones are H or OH. Square brackets hold non-standard residues; d marks the D form. Side chains are listed from the residue outwards. Peptide text beside a SMILES is read from it. * marks the point of attachment. C18 diacid = O=C(O)CCCCCCCCCCCCCCCCC(=O)*; γGlu = O=C(O)[C@H](CCC(=O)[*:2])N[*:1]; Ac4c = NC1(C(=O)O)CCC1; AEEA = NCCOCCOCC(=O)O; Aib = CC(C)(N)C(=O)O
# Assay: Thioflavin T (ThT) fibrillation assay for physical stability
# Format: physicochemical
# Conditions: 250 μM in 10 mM HEPES buffer, pH 7.5, 37° C., shaking 960 rpm
# How it was run: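 Fibrillation was followed by ThT (1 μM) fluorescence every 20 min, 444/485 nm, for 250 μM peptide in 10 mM HEPES pH 7.5 shaken at 960 rpm, 37° C. Lag time (t0−2τ) and apparent rate constant (1/τ) come from a sigmoidal fit. Recovery is % of initial concentration remaining soluble after centrifugation and filtration (RP-HPLC).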
row,THT assay Lag time (Ex. 76) [h],Compound
1,45,"CC(C)C[C@H](NC(=O)[C@H](Cc1ccc(O)cc1)NC(=O)[C@H](CCCCN)NC(=O)[C@H](CO)NC(=O)[C@H](CC(C)C)NC(=O)[C@H](CC(=O)O)NC(=O)[C@H](CO)NC(=O)[C@@H](NC(=O)[C@H](Cc1ccccc1)NC(=O)[C@@H](NC(=O)CNC(=O)[C@H](CCC(N)=O)NC(=O)C(C)(C)NC(=O)[C@@H](N)Cc1c[nH]cn1)[C@@H](C)O)[C@@H](C)O)C(=O)N[C@@H](CCC(=O)O)C(=O)N[C@@H](CO)C(=O)N[C@@H](CCCNC(=N)N)C(=O)N[C@@H](CCCNC(=N)N)C(=O)N[C@@H](C)C(=O)N[C@@H](CCCNC(=N)N)C(=O)N[C@@H](CCC(=O)O)C(=O)N[C@@H](Cc1ccccc1)C(=O)N[C@H](C(=O)N[C@@H](CCC(N)=O)C(=O)N[C@@H](Cc1c[nH]c2ccccc12)C(=O)N[C@@H](CC(C)C)C(=O)N[C@@H](CC(C)C)C(=O)N[C@@H](CCCCNC(=O)COCCOCCNC(=O)COCCOCCNC(=O)CC[C@H](NC(=O)CC[C@H](NC(=O)CC[C@H](NC(=O)CCCCCCCCCCCCCCCCC(=O)O)C(=O)O)C(=O)O)C(=O)O)C(=O)N[C@H](C(N)=O)[C@@H](C)O)C(C)C [Example 42, N^ε28-[2-[2-[2-[[2-[2-[2-[[(4S)-4-carboxy-4-[[(4S)-4-carboxy-4-[[(4S)-4-carboxy-4-(17-carboxyheptadecanoylamino)butanoyl]amino]butanoyl]amino]butanoyl]amino]ethoxy]ethoxy]acetyl]amino]ethoxy]ethoxy]acetyl]-[Aib2,Leu10,Glu15,Arg20,Glu21,Leu27,Lys28]-Glucagon amide] (H-H[Aib]QGTFTSDLSKYLESRRAREFVQWLLK([AEEA-AEEA-γGlu-γGlu-γGlu-C18 diacid])T-NH2; N-terminus assumed)"
2,45,"CC(C)C[C@H](NC(=O)[C@H](Cc1ccc(O)cc1)NC(=O)[C@H](CCCCN)NC(=O)[C@H](CO)NC(=O)[C@H](CC(C)C)NC(=O)[C@H](CC(=O)O)NC(=O)[C@H](CO)NC(=O)[C@@H](NC(=O)[C@H](Cc1ccccc1)NC(=O)[C@@H](NC(=O)CNC(=O)[C@H](CCC(N)=O)NC(=O)C(C)(C)NC(=O)[C@@H](N)Cc1c[nH]cn1)[C@@H](C)O)[C@@H](C)O)C(=O)N[C@@H](CC(=O)O)C(=O)N[C@@H](C)C(=O)N[C@@H](CCCNC(=N)N)C(=O)N[C@@H](CCCNC(=N)N)C(=O)N[C@@H](C)C(=O)N[C@@H](CCCNC(=N)N)C(=O)N[C@@H](CCC(=O)O)C(=O)N[C@@H](Cc1ccccc1)C(=O)N[C@H](C(=O)N[C@@H](CCC(N)=O)C(=O)N[C@@H](Cc1c[nH]c2ccccc12)C(=O)N[C@@H](CC(C)C)C(=O)N[C@@H](CC(C)C)C(=O)N[C@@H](CCCCNC(=O)CC[C@H](NC(=O)CC[C@H](NC(=O)COCCOCCNC(=O)COCCOCCNC(=O)CC[C@H](NC(=O)CCCCCCCCCCCCCCCCC(=O)O)C(=O)O)C(=O)O)C(=O)O)C(=O)N[C@H](C(N)=O)[C@@H](C)O)C(C)C [Example 43, N^ε28-[(4S)-4-carboxy-4-[[(4S)-4-carboxy-4-[[2-[2-[2-[[2-[2-[2-[[(4S)-4-carboxy-4-(17-carboxyheptadecanoylamino)butanoyl]amino]ethoxy]ethoxy]acetyl]amino]ethoxy]ethoxy]acetyl]amino]butanoyl]amino]butanoyl]-[Aib2,Leu10,Ala16,Arg20,Glu21,Leu27,Lys28]-Glucagon amide] (H-H[Aib]QGTFTSDLSKYLDARRAREFVQWLLK([γGlu-γGlu-AEEA-AEEA-γGlu-C18 diacid])T-NH2; N-terminus assumed)"
3,45,"CC(C)C[C@H](NC(=O)[C@H](Cc1ccc(O)cc1)NC(=O)[C@H](CCCCN)NC(=O)[C@H](CO)NC(=O)[C@H](CC(C)C)NC(=O)[C@H](CC(=O)O)NC(=O)[C@H](CO)NC(=O)[C@@H](NC(=O)[C@H](Cc1ccccc1)NC(=O)[C@@H](NC(=O)CNC(=O)[C@H](CCC(N)=O)NC(=O)C1(NC(=O)[C@@H](N)Cc2c[nH]cn2)CCC1)[C@@H](C)O)[C@@H](C)O)C(=O)N[C@@H](CCC(=O)O)C(=O)N[C@@H](CO)C(=O)N[C@@H](CCCNC(=N)N)C(=O)N[C@@H](CCCNC(=N)N)C(=O)N[C@@H](C)C(=O)N[C@@H](CCCNC(=N)N)C(=O)N[C@@H](CCC(=O)O)C(=O)N[C@@H](Cc1ccccc1)C(=O)N[C@H](C(=O)N[C@@H](CCC(N)=O)C(=O)N[C@@H](Cc1c[nH]c2ccccc12)C(=O)N[C@@H](CC(C)C)C(=O)N[C@@H](CC(C)C)C(=O)N[C@@H](CCCCNC(=O)CC[C@H](NC(=O)CC[C@H](NC(=O)COCCOCCNC(=O)COCCOCCNC(=O)CC[C@H](NC(=O)CCCCCCCCCCCCCCCCC(=O)O)C(=O)O)C(=O)O)C(=O)O)C(=O)N[C@H](C(N)=O)[C@@H](C)O)C(C)C [Example 44, N^ε28-[(4S)-4-carboxy-4-[[(4S)-4-carboxy-4-[[2-[2-[2-[[2-[2-[2-[[(4S)-4-carboxy-4-(17-carboxyheptadecanoylamino)butanoyl]amino]ethoxy]ethoxy]acetyl]amino]ethoxy]ethoxy]acetyl]amino]butanoyl]amino]butanoyl]-[Acb2,Leu10,Glu15,Arg20,Glu21,Leu27,Lys28]-Glucagon amide] (H-H[Ac4c]QGTFTSDLSKYLESRRAREFVQWLLK([γGlu-γGlu-AEEA-AEEA-γGlu-C18 diacid])T-NH2; N-terminus assumed)"
4,45,"CC(C)C[C@H](NC(=O)[C@H](CC(=O)O)NC(=O)[C@H](CC(C)C)NC(=O)[C@H](Cc1ccc(O)cc1)NC(=O)[C@H](CCCCN)NC(=O)[C@H](CO)NC(=O)[C@H](CC(C)C)NC(=O)[C@H](CC(=O)O)NC(=O)[C@H](CO)NC(=O)[C@@H](NC(=O)[C@H](Cc1ccccc1)NC(=O)[C@@H](NC(=O)CNC(=O)[C@H](CCC(N)=O)NC(=O)C1(NC(=O)[C@@H](N)Cc2c[nH]cn2)CCC1)[C@@H](C)O)[C@@H](C)O)C(=O)N[C@@H](CCCNC(=N)N)C(=O)N[C@@H](CCCNC(=N)N)C(=O)N[C@@H](C)C(=O)N[C@@H](CCCNC(=N)N)C(=O)N[C@@H](CC(=O)O)C(=O)N[C@@H](Cc1ccccc1)C(=O)N[C@H](C(=O)N[C@@H](CCC(N)=O)C(=O)N[C@@H](Cc1c[nH]c2ccccc12)C(=O)N[C@@H](CC(C)C)C(=O)N[C@@H](CC(C)C)C(=O)N[C@@H](CCCCNC(=O)CC[C@H](NC(=O)CC[C@H](NC(=O)COCCOCCNC(=O)COCCOCCNC(=O)CC[C@H](NC(=O)CC[C@H](NC(=O)CCCCCCCCCCCCCCCCC(=O)O)C(=O)O)C(=O)O)C(=O)O)C(=O)O)C(=O)N[C@H](C(N)=O)[C@@H](C)O)C(C)C [Example 45, N^ε28-[(4S)-4-carboxy-4-[[(4S)-4-carboxy-4-[[2-[2-[2-[[2-[2-[2-[[(4S)-4-carboxy-4-[[(4S)-4-carboxy-4-(17-carboxyheptadecanoylamino)butanoyl]amino]butanoyl]amino]ethoxy]ethoxy]acetyl]amino]ethoxy]ethoxy]acetyl]amino]butanoyl]amino]butanoyl]-[Acb2,Leu10,Leu16,Arg20,Leu27,Lys28]-Glucagon amide] (H-H[Ac4c]QGTFTSDLSKYLDLRRARDFVQWLLK([γGlu-γGlu-AEEA-AEEA-γGlu-γGlu-C18 diacid])T-NH2; N-terminus assumed)"
5,45,"CC(C)C[C@H](NC(=O)[C@H](CC(=O)O)NC(=O)[C@H](CC(C)C)NC(=O)[C@H](Cc1ccc(O)cc1)NC(=O)[C@H](CCCNC(=N)N)NC(=O)[C@H](CO)NC(=O)[C@H](CC(C)C)NC(=O)[C@H](CC(=O)O)NC(=O)[C@H](CO)NC(=O)[C@@H](NC(=O)[C@H](Cc1ccccc1)NC(=O)[C@@H](NC(=O)CNC(=O)[C@H](CCC(N)=O)NC(=O)C1(NC(=O)[C@@H](N)Cc2c[nH]cn2)CCC1)[C@@H](C)O)[C@@H](C)O)C(=O)N[C@@H](CCCNC(=N)N)C(=O)N[C@@H](CCCNC(=N)N)C(=O)N[C@@H](C)C(=O)N[C@@H](CCCNC(=N)N)C(=O)N[C@@H](CC(=O)O)C(=O)N[C@@H](Cc1ccccc1)C(=O)N[C@H](C(=O)N[C@@H](CCC(N)=O)C(=O)N[C@@H](Cc1c[nH]c2ccccc12)C(=O)N[C@@H](CC(C)C)C(=O)N[C@@H](CC(C)C)C(=O)N[C@@H](CCCCNC(=O)CC[C@H](NC(=O)CC[C@H](NC(=O)COCCOCCNC(=O)COCCOCCNC(=O)CC[C@H](NC(=O)CC[C@H](NC(=O)CCCCCCCCCCCCCCCCC(=O)O)C(=O)O)C(=O)O)C(=O)O)C(=O)O)C(=O)N[C@H](C(N)=O)[C@@H](C)O)C(C)C [Example 46, N^ε28-[(4S)-4-carboxy-4-[[(4S)-4-carboxy-4-[[2-[2-[2-[[2-[2-[2-[[(4S)-4-carboxy-4-[[(4S)-4-carboxy-4-(17-carboxyheptadecanoylamino)butanoyl]amino]butanoyl]amino]ethoxy]ethoxy]acetyl]amino]ethoxy]ethoxy]acetyl]amino]butanoyl]amino]butanoyl]-[Acb2,Leu10,Arg12,Leu16,Arg20,Leu27,Lys28]-Glucagon amide] (H-H[Ac4c]QGTFTSDLSRYLDLRRARDFVQWLLK([γGlu-γGlu-AEEA-AEEA-γGlu-γGlu-C18 diacid])T-NH2; N-terminus assumed)"
